Assay results reported in ChEMBL document CHEMBL4422615, “Novel non-xanthine antagonist of the A2B adenosine receptor: From HTS hit to lead structure” (Eur J Med Chem, 2019).
The source made the active and inactive calls. The calls are words filed in the database; no cut-off is given here.

Experiments:
[1] = Half life in dog at 1 mg/kg, po for 15 mins by HPLC-MS/MS analysis; assay type: ADME, organism-based, Canis lupus familiaris; conditions: in vivo
Mus musculus [2] = assay: Antifibrotic activity in silica-induced C57BL/6J mouse pulmonary fibrosis model assessed as reduction in total number of cells in BALF at 100 to 500 mg/kg, bid administered via gavage treated from day 1 until day 7 after silica application; assay type: functional, organism-based
Adenosine receptor A3 = biological target: T1, Adenosine receptor A3 (Homo sapiens, UniProt P0DMS8); assay: Displacement of [125I]AB-MECA from human A3 adenosine receptor expressed in HEK293 cell membranes after 120 mins by radioligand displacement assay
T1 sequence (P0DMS8 whole entry): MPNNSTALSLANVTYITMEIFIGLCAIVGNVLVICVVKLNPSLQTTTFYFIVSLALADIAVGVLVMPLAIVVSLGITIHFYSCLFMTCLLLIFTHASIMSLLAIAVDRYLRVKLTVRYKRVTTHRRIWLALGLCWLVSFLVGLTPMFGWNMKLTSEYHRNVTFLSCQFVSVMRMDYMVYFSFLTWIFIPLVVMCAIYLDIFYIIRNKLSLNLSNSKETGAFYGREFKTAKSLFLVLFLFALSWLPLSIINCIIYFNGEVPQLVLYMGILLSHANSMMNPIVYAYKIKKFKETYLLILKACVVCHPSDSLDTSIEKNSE

[3] = MRT in dog at 1 mg/kg, po for 15 mins by HPLC-MS/MS analysis; assay type: ADME, organism-based, Canis lupus familiaris; conditions: in vivo
[4] = MRT in rat at 1 mg/kg, po for 15 mins by HPLC-MS/MS analysis; assay type: ADME, organism-based; conditions: in vivo
[5] = Dose normalized Cmax in rat at 1 mg/kg, po for 15 mins by HPLC-MS/MS analysis; assay type: ADME, organism-based; conditions: in vivo, 0.25 h
[6] = Plasma clearance in mouse; assay type: ADME, organism-based
[7] = Fraction unbound in human plasma by equilibrium dialysis method; assay type: ADME, cell-free
[8] = Half life in mouse at 1 mg/kg, iv administered as bolus dose by HPLC-MS/MS analysis; assay type: ADME, organism-based; conditions: in vivo
Cytochrome P450 2C8 = biological target: T2, Cytochrome P450 2C8 (Homo sapiens, UniProt P10632); assay: Inhibition of CYP2C8 in human liver microsomes using amodiaquine as substrate after 15 mins in presence of NADPH by LC-MS/MS analysis; assay type: ADME
T2 sequence (P10632 whole entry): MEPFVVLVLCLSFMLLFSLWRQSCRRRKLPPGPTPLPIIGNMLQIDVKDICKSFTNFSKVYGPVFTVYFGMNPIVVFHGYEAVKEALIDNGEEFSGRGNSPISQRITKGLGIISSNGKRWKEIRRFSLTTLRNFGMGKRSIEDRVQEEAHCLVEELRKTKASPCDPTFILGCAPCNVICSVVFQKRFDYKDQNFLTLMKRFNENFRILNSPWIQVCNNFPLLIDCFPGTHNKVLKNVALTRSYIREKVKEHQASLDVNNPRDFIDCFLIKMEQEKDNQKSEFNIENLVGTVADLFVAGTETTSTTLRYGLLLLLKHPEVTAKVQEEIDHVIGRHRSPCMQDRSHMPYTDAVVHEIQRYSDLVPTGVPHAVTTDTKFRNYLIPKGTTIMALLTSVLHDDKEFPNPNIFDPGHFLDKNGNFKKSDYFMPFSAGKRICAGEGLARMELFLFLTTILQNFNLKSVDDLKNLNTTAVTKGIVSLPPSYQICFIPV

Adenosine receptor A1 = biological target: T3, Adenosine receptor A1 (Homo sapiens, UniProt P30542); assay: Antagonist activity at recombinant human A1 adenosine receptor expressed in CHO cells after 3 to 4 hrs by luciferase reporter gene assay; assay type: cell-based
T3 sequence (P30542 whole entry): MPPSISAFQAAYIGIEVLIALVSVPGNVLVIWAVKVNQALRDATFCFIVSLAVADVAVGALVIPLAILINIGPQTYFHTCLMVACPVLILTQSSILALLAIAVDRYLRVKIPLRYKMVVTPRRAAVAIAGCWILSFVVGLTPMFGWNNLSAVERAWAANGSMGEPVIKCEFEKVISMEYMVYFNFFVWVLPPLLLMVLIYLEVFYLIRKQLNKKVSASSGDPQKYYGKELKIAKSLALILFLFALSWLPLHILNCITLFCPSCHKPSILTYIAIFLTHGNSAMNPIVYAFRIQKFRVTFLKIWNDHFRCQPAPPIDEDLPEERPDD

[9] = Clearance in dog plasma at 0.3 mg/kg, iv administered as bolus dose by HPLC-MS/MS analysis; assay type: ADME, organism-based, Canis lupus familiaris
Cytochrome P450 2C9 = Cytochrome P450 2C9 (Homo sapiens, UniProt P11712); assay: Inhibition of CYP2C9 in human liver microsomes using diclofenac as substrate after 15 mins in presence of NADPH by LC-MS/MS analysis; assay type: ADME
[10] = Intrinsic clearance in rat hepatocytes by MS/MS analysis; assay type: ADME, cell-based, Hepatocyte
[11] = Blood clearance in human by measuring intrinsic clearance in human liver microsomes by MS/MS analysis; assay type: ADME
[12] = Half life in rat at 1 mg/kg, po for 15 mins by HPLC-MS/MS analysis; assay type: ADME, organism-based; conditions: in vivo
Adenosine receptor A2a = Adenosine receptor A2a (Rattus norvegicus, UniProt P30543); assay: Antagonist activity at recombinant rat A2A adenosine receptor expressed in CHO cells after 3 to 4 hrs by luciferase reporter gene assay; assay type: cell-based
PXR = biological target: T4, PXR (Homo sapiens, UniProt O75469); assay: Activation of PXR in human HepG2 cells assessed as induction of CYP3A4 expression at 2 x 10^-9 to 50 x 10^-6 mol/L by luciferase reporter gene assay relative to control; assay type: ADME, cell-based
T4 sequence (O75469 whole entry): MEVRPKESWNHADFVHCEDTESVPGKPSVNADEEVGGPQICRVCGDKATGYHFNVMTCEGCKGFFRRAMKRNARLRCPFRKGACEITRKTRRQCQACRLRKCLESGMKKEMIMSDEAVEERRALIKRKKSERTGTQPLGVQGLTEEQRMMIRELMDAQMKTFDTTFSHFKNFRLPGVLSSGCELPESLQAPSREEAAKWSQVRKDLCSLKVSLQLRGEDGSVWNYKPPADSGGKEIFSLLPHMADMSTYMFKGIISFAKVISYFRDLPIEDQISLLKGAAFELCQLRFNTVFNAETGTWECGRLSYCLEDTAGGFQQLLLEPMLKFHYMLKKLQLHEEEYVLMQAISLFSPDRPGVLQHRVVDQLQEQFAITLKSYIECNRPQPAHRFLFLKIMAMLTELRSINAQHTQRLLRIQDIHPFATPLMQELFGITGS

Mus musculus [13] = assay: Antifibrotic activity in FITC-induced C57BL/6J mouse pulmonary fibrosis model assessed as reduction in IL-6 level in lung tissue homogenate at 100 to 500 mg/kg, bid administered via gavage pretreated for 45 mins before FITC addition until 72 hrs after FITC application by ELISA; assay type: functional, organism-based
[14] = Toxicity in silica-induced C57BL/6J mouse pulmonary fibrosis model assessed as change in body weight at 100 to 500 mg/kg, bid administered via gavage treated from day 1 until day 7 after silica application; assay type: organism-based; conditions: in vivo, po

Sequence of Adenosine receptor A2a (P30543 whole entry): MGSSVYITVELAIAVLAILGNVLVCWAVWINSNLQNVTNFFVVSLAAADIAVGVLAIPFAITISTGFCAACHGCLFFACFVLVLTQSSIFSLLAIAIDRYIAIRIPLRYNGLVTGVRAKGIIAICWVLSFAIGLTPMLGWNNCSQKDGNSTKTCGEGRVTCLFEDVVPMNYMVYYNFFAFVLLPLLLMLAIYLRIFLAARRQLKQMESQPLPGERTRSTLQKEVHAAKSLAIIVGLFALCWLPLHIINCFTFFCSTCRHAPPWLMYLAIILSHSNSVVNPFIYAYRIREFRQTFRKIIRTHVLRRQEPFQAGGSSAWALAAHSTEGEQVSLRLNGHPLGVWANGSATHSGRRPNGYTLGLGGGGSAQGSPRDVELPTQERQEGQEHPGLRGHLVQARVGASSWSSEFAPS
Sequence of Cytochrome P450 2C9 (P11712 whole entry): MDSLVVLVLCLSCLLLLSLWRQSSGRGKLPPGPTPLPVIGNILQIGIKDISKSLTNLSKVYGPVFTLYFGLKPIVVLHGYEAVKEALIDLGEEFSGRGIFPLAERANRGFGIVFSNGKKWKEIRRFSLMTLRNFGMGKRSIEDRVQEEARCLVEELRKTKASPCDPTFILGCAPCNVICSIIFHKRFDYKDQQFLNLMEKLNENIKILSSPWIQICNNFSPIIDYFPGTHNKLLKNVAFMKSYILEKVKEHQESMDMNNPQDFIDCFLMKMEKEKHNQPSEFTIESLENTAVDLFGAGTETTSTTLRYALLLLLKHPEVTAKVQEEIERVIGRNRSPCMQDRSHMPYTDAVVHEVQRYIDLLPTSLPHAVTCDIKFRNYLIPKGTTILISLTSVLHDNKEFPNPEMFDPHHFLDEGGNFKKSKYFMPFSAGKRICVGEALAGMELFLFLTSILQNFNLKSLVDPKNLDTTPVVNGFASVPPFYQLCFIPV

Compound: CCn1c(=O)c2c(C)c(C(=O)N3CCC(O)CC3)sc2n(CCC(F)(F)F)c1=O
- half-life [1]: 5.1 h
- Activity (Mus musculus [2]): inactive
- Ki (Adenosine receptor A3): > 10000 nM
- MRT [3]: 4.4 h
- MRT [4]: 2 h
- Cmax/dose [5]: 0.33 kg/L
- clearance [6]: 10.2 mL/min/kg
- fraction unbound [7]: 0.6
- half-life [8]: 2.1 h
- IC50 (Cytochrome P450 2C8): > 20000 nM
- IC50 (Adenosine receptor A1): 1300 nM
- clearance [9]: 6.67 mL/min/kg
- IC50 (Cytochrome P450 2C9): > 20000 nM
- CLhep predicted [10]: 23.3 mL/min/kg
- CLhep predicted [11]: 3.67 mL/min/kg
- half-life [12]: 1.4 h
- IC50 (Adenosine receptor A2a): 750 nM
- Emax (PXR): 16%
- Activity (Mus musculus [13]): Active
- Activity [14]: Non-Toxic
